In ChEMBL document CHEMBL1138427, “Intestinal permeability of antivirus constituents from the fruits of Eucalyptus globulus Labill. in Caco-2 Cell Model” (Bioorg Med Chem Lett, 2007):

Assays:
Format in all cases: ADME, cell-based
[1] = Apparent permeability from apical to basolateral side of human Caco-2 cells at 30 uM after 90 mins
[2] = Apparent permeability from apical to basolateral side of human Caco-2 cells at 50 uM after 90 mins
[3] = Apparent permeability from apical to basolateral side of human Caco-2 cells at 100 uM after 90 mins
[4] = Apparent permeability from basolateral to apical side of human Caco-2 cells at 30 uM after 90 mins
[5] = Apparent permeability from basolateral to apical side of human Caco-2 cells at 50 uM after 90 mins
[6] = Apparent permeability from basolateral to apical side of human Caco-2 cells at 100 uM after 90 mins
Caco-2 [7] = test: Ratio of permeability from basolateral to apical side over apical to basolateral side of human Caco-2 cells at 30 uM; conditions: caco-2, 30 µM
Caco-2 [8] = test: Ratio of permeability from basolateral to apical side over apical to basolateral side of human Caco-2 cells at 50 uM; conditions: caco-2, 50 µM
Caco-2 [9] = test: Ratio of permeability from basolateral to apical side over apical to basolateral side of human Caco-2 cells at 100 uM; conditions: caco-2, 100 µM
[10] = Apparent permeability from apical to basolateral side of human Caco-2 cells at 50 uM in presence of iodoacetamide; conditions: Caco-2, with iodoacetamide (concentration not stated)
[11] = Apparent permeability from basolateral to apical side of human Caco-2 cells at 50 uM in presence of iodoacetamide; conditions: Caco-2, with iodoacetamide (concentration not stated)
Caco-2 [12] = test: Drug level in Caco-2 cells assessed as intracellular accumulation at 50 uM after 180 mins; conditions: human, caco-2, 3 h
Caco-2 [13] = test: Drug level in Caco-2 cells assessed as intracellular accumulation at 50 uM after 60 mins; conditions: human, caco-2, 1 h
Caco-2 [14] = test: Drug level in Caco-2 cells assessed as intracellular accumulation at 50 uM after 90 mins; conditions: human, caco-2, 1.5 h
Caco-2 [15] = test: Drug level in Caco-2 cells assessed as intracellular accumulation at 50 uM after 120 mins; conditions: human, caco-2, 2 h
Caco-2 [16] = test: Drug level in Caco-2 cells assessed as intracellular accumulation at 50 uM after 150 mins; conditions: human, caco-2, 2.5 h
[17] = Drug level in Caco-2 cells assessed as total recovery rate at 50 uM after 30 mins; conditions: human, read-out: Drug uptake
[18] = Drug level in Caco-2 cells assessed as total recovery rate at 50 uM after 60 mins; conditions: human, read-out: Drug uptake
[19] = Drug level in Caco-2 cells assessed as total recovery rate at 50 uM after 90 mins; conditions: human, read-out: Drug uptake
[20] = Drug level in Caco-2 cells assessed as total recovery rate at 50 uM after 120 mins; conditions: human, read-out: Drug uptake
[21] = Drug level in Caco-2 cells assessed as total recovery rate at 50 uM after 150 mins; conditions: human, read-out: Drug uptake
[22] = Drug level in Caco-2 cells assessed as total recovery rate at 50 uM after 180 mins; conditions: human, read-out: Drug uptake
Caco-2 [23] = test: Drug level in Caco-2 cells assessed as intracellular accumulation at 50 uM after 30 mins; conditions: human, caco-2, 0.5 h

Papp A→B at 1.5 h, 30 µM [1] [×10⁻⁶ cm/s]	Papp A→B at 1.5 h, 50 µM [2] [×10⁻⁶ cm/s]	Papp A→B at 1.5 h, 100 µM [3] [×10⁻⁶ cm/s]	Papp B→A at 1.5 h, 30 µM [4] [×10⁻⁶ cm/s]	Papp B→A at 1.5 h, 50 µM [5] [×10⁻⁶ cm/s]	Papp B→A at 1.5 h, 100 µM [6] [×10⁻⁶ cm/s]	Ratio (Caco-2 [7])	Ratio (Caco-2 [8])	Ratio (Caco-2 [9])	Drug uptake (Caco-2 [12]) [%]	Drug uptake (Caco-2 [13]) [%]	Drug uptake (Caco-2 [14]) [%]	Drug uptake (Caco-2 [15]) [%]	Drug uptake (Caco-2 [16]) [%]	recovery at 0.5 h, 50 µM [17] [%]	recovery at 1 h, 50 µM [18] [%]	recovery at 1.5 h, 50 µM [19] [%]	recovery at 2 h, 50 µM [20] [%]	recovery at 2.5 h, 50 µM [21] [%]	recovery at 3 h, 50 µM [22] [%]	SMILES	other results
7.4	5.99	4.82	2.66	3.32	2.71	2.74	1.8	1.81	0.89	0.83	0.81	0.69	0.81	56.8	53.1	52.8	52.7	54.6	52.5	Cc1cc(=O)c2c(O)cc(O[C@@H]3O[C@H](COC(=O)C4=CC[C@H](C(C)(C)O)CC4)[C@@H](O)[C@H](O)[C@H]3O)cc2o1 [CYPELLOCARPA C]	Papp A→B at 50 µM [10]: 0.897 ×10⁻⁶ cm/s; Papp B→A at 50 µM [11]: 2.46 ×10⁻⁶ cm/s; Drug uptake (Caco-2 [23]): 1.42%
1.66	1.64	1.8	1.63	1.68	1.42	1.02	0.98	1.27	56.67	40.79	44.21	50.42	50.57	76.4	63.1	60.8	69.8	68.5	75.7	CC(C)C[C@@H](c1c(O)c(C=O)c(O)c(C=O)c1O)[C@@]1(C)CC[C@@H]2[C@@H]1[C@H]1[C@@H](CC[C@@]2(C)O)C1(C)C [MACROCARPAL A]	Drug uptake (Caco-2 [23]): 36.8%
2.29	1.71	1.64	1.84	2	2.14	1.25	0.85	0.77	49.26	50.56	46.98	63.25	53.21	50	56.6	64.7	68.7	59.5	55.5	CC(C)C[C@H](c1c(O)c(C=O)c(O)c(C=O)c1O)[C@@]1(C)CC[C@@H]2[C@@H]1[C@H]1[C@@H](CC[C@@]2(C)O)C1(C)C [MACROCARPAL B]	Drug uptake (Caco-2 [23]): 41.19%
